The numbers were not newly measured in patent US11485730B2, “Compositions and methods for the treatment of fungal infections” (Cellix Bio Private Limited, priority 2016, dated 2022), which cites them from elsewhere.

Where two headings read alike, the source gives them in different places.

As a reminder, the MIC is the lowest concentration that inhibits growth of the organism.

Data set [1] has as its system various oral pathogenic microorganisms.
In data set [2] the test system is oral streptococci and periodontopathogens.
For data set [3] the following is noted: among the long-chain fatty acids.

`CCCCC/C=C\C/C=C\C/C=C\CCCCC(=O)O` [GLA, gamma linoleic acid]: in data set [1] (in vitro studies, various oral pathogenic microorganisms), the anti-microbial activity entry was “significant anti-microbial activity”. In addition, in data set [1] (various oral microorganisms, including S. mutans, A. actinomycetemcomitans, C. albicans, P. gingivalis, F. nucleatum, S. gordonii), the antimicrobial activities entry is recorded as “antimicrobial activities”. Further, the bactericidal concentration in data set [2] (n-6 fatty acids) was 25 µg/mL. The antimicrobial activity result in data set [3] is reported as “greatest antimicrobial activity”.

As to `CCCCC/C=C\C/C=C\C/C=C\C/C=C\CCCC(=O)O` [arachidonic acid], the antimicrobial activity result in data set [3] is given as “greatest antimicrobial activity”.

Consider `CCCCC/C=C\C/C=C\CCCCCCCC(=O)O` [linoleic acid], for which the results for the minimal inhibitory concentration (MIC) in the data set with Candida Species and in the data set on Candida Species (printed as corresponding to 0.45 μmoles/ml) were 450 µM and 0.13 mg/L, respectively. Further, the bactericidal concentration in data set [2] was 25 µg/mL. For the same compound, the antimicrobial activity result in data set [3] is recorded as “greatest antimicrobial activity”. The “activity against C. albicans” value with C. albicans is below 40%.

Consider `CCCCCCCCCCCCCCCC(=O)O` [palmitic acid], for which, in data set [3], the antimicrobial activity entry is recorded as “greatest antimicrobial activity”.

Consider `CCCCCC/C=C\CCCCCCCC(=O)O` [palmitoleic acid], for which, in data set [3], the antimicrobial activity result is listed as “greatest antimicrobial activity”.
